Molecular target: T1, Dimer of Gag-Pol polyprotein [489-587] (Human immunodeficiency virus 1, UniProt P12497)
T1 construct: 489-587
Experiment: Protease Inhibition Assay
Protocol: The inhibitory activities of the compounds toward HIV-1 PR were determined by sodium dodecyl sulfate-polyacrylamide gel electrophoresis (SDS-PAGE) assay. The IC50 values of active compounds were determined using the partially purified protease and the synthetic substrate Ac-Ser-Gln-AsnTyr-Pro-Ile-Val-NH2.

Cc1cccc(C[C@H](NC(=O)c2ccc(C)c(O)c2C)[C@H](O)C(=O)N2C[C@@H](Cl)C[C@H]2C(=O)NC(C)(C)C)c1 [(3-Hydroxy-2,4-dimethylbenzoyl)-(2(S)-hydroxy-3(S)-amino-4-m-tolylbutanoyl)-4(S)-Cl-Pro-NH-t-Bu]
IC50: 2.5 nM

Cc1ccc(C(=O)N[C@@H](Cc2ccccc2)[C@H](O)C(=O)N2C[C@@H](Cl)C[C@H]2C(=O)NC(C)(C)C)c(C)c1O
IC50: 8.2 nM

Cc1c(O)cccc1C(=O)N[C@@H](Cc1cccc(F)c1)[C@H](O)C(=O)N1C[C@@H](Cl)C[C@H]1C(=O)NC(C)(C)C [(2S,4S)-N-tert-butyl-4-chloro-1-[(2S,3S)-4-(3-fluorophenyl)-2-hydroxy-3-[(3-hydroxy-2-methylphenyl)formamido]butanoyl]pyrrolidine-2-carboxamide]
IC50: 0.6 nM

Cc1ccc(C[C@H](NC(=O)c2ccc(C)c(O)c2C)[C@H](O)C(=O)N2C[C@@H](Cl)C[C@H]2C(=O)NC(C)(C)C)cc1 [(2S,4S)-N-tert-butyl-4-chloro-1-[(2S,3S)-2-hydroxy-3-[(3-hydroxy-2,4-dimethylphenyl)formamido]-4-(4-methylphenyl)butanoyl]pyrrolidine-2-carboxamide]
IC50: 8.6 nM

Cc1ccc(C(=O)N[C@@H](Cc2cccc(C(F)(F)F)c2)[C@H](O)C(=O)N2C[C@@H](Cl)C[C@H]2C(=O)NC(C)(C)C)c(C)c1O
IC50: 3.5 nM

Cc1ccc(C[C@H](NC(=O)c2cccc(O)c2C)[C@H](O)C(=O)N2C[C@@H](Cl)C[C@H]2C(=O)NC(C)(C)C)cc1 [(3-Hydroxy-2-methylbenzoyl)-(2(S)-hydroxy-3(S)-amino-4-p-tolylbutanoyl)-4(S)-Cl-Pro-NH-t-Bu]
IC50: 0.9 nM

Cc1cccc(C[C@H](NC(=O)c2cccc(O)c2C)[C@H](O)C(=O)N2C[C@@H](Cl)C[C@H]2C(=O)NC(C)(C)C)c1 [(3-Hydroxy-2-methylbenzoyl)-(2(S)-hydroxy-3(S)-amino-4-m-tolylbutanoyl)-4(S)-Cl-Pro-NH-t-Bu]
IC50: 0.6 nM

Cc1c(O)cccc1C(=O)N[C@@H](Cc1cccc2ccccc12)[C@H](O)C(=O)N1C[C@@H](Cl)C[C@H]1C(=O)NC(C)(C)C [(3-Hydroxy-2-methylbenzoyl)-{2(S)-hydroxy-3(S)-amino-4-(alpha-naphtyl)-butanoyl}-4(S)-Cl-Pro-NH-t-Bu]
IC50: 1.5 nM

Cc1c(O)cccc1C(=O)N[C@@H](Cc1ccc(C(F)(F)F)cc1)[C@H](O)C(=O)N1C[C@@H](Cl)C[C@H]1C(=O)NC(C)(C)C [(2S,4S)-N-tert-butyl-4-chloro-1-[(2S,3S)-2-hydroxy-3-[(3-hydroxy-2-methylphenyl)formamido]-4-[4-(trifluoromethyl)phenyl]butanoyl]pyrrolidine-2-carboxamide]
IC50: 0.6 nM

Cc1c(O)cccc1C(=O)N[C@@H](Cc1ccccc1F)[C@H](O)C(=O)N1C[C@@H](Cl)C[C@H]1C(=O)NC(C)(C)C [(2S,4S)-N-tert-butyl-4-chloro-1-[(2S,3S)-4-(2-fluorophenyl)-2-hydroxy-3-[(3-hydroxy-2-methylphenyl)formamido]butanoyl]pyrrolidine-2-carboxamide]
IC50: 0.7 nM

Cc1c(O)cc(F)cc1C(=O)N[C@@H](Cc1ccc2sccc2c1)[C@H](O)C(=O)N1C[C@@H](Cl)C[C@H]1C(=O)NC(C)(C)C [(5-Fluoro-3-hydroxy-2-methylbenzoyl)-{2(S)-hydroxy-3(S)-amino-4-(benzo[b]thiophene-5-yl)-butanoyl}-4(S)-Cl-Pro-NH-t-Bu]
IC50: 1.9 nM

Cc1c(O)cccc1C(=O)N[C@@H](Cc1ccccc1)[C@H](O)C(=O)N1C[C@@H](Cl)C[C@H]1C(=O)NC(C)(C)C [(3-Hydroxy-2-methylbenzoyl)-(2(S)-hydroxy-3(S)-amino-phenylbutanoyl)-4(S)-Cl-Pro-NH-t-Bu]
IC50: 0.9 nM

Cc1cc(O)c(C)c(C(=O)N[C@@H](Cc2ccccc2)[C@H](O)C(=O)N2C[C@@H](Cl)C[C@H]2C(=O)NC(C)(C)C)c1 [(2S,4S)-N-tert-butyl-4-chloro-1-[(2S,3S)-2-hydroxy-3-[(3-hydroxy-2,5-dimethylphenyl)formamido]-4-phenylbutanoyl]pyrrolidine-2-carboxamide]
IC50: 1.3 nM

— BindingDB's records for doi:10.1016/s0968-0896(99)00127-3 (Sankyo, 1999)
